Measurements taken from patent US20090239841A1, “Diaryl Ureas as CB1 Antagonists” (priority 2004, published 2009).

target: T1, hCB1 (Homo sapiens, UniProt P21554); assay: Agonist-induced GTP binding (GTPγ35S) assay at CB1, Example 8; assay type: biochemical; settings: IC50 at CB1, determined as described in Example 8; read-out: IC50
T1 construct: made in house; host or cells: Sf9 insect cells (baculovirus), P2 membranes
Method in brief: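 Membranes from Sf9 cells co-expressing hCB1 and heterotrimeric G-protein (10 μg protein) in Tris pH 7.4 buffer with 5 μM GDP. Test compounds (10^−10–10^−5 M) competed against 1 nM CP55,940 with […] GTPγ35S, 60 min at room temperature. Filter-bound radioactivity by scintillation, expressed as percent above basal.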

T1 sequence (P21554 whole entry): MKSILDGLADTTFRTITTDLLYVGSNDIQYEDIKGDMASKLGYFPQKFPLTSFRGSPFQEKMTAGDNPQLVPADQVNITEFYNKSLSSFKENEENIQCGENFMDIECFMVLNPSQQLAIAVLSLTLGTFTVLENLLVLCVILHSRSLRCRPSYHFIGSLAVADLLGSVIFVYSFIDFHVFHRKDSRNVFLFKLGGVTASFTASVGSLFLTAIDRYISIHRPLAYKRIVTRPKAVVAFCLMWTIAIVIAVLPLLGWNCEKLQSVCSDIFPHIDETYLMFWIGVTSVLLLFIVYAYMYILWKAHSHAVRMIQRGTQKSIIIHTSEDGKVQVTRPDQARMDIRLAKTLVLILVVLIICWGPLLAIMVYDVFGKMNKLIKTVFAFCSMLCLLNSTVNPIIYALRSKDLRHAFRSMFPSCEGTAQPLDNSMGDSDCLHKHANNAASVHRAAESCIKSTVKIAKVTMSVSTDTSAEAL

Row | Structure (SMILES) | IC50 [µM]
1 | CCOC(=O)c1cccc(NC(=O)Nc2ccc(CC)cc2)c1 [Compound 646, ethyl 3-({[(4-ethylphenyl)amino]carbonyl}amino)benzoate] | < 2
2 | COC(=O)c1cccc(NC(=O)Nc2ccc(Cl)cc2)c1 [Compound 647, methyl 3-({[(4-chlorophenyl)amino]carbonyl}amino)benzoate] | < 2
3 | CCOC(=O)c1cccc(NC(=O)Nc2ccc(Cl)cc2)c1 [Compound 648, ethyl 3-({[(4-chlorophenyl)amino]carbonyl}amino)benzoate] | < 2
4 | CCOC(=O)c1cccc(NC(=O)Nc2ccc(C(C)C)cc2)c1 [Compound 649, ethyl 3-({[(4-isopropylphenyl)amino]carbonyl}amino)benzoate] | < 2
5 | CCCc1ccc(NC(=O)Nc2cccc(C(=O)OC)c2)cc1 [Compound 650, methyl 3-({[(4-propylphenyl)amino]carbonyl}amino)benzoate] | < 2
6 | CCCc1ccc(NC(=O)Nc2ccc(C(=O)OC)cc2)cc1 [Compound 651, methyl 4-({[(4-propylphenyl)amino]carbonyl}amino)benzoate] | < 2
7 | CCCc1ccc(NC(=O)Nc2cccc(C(=O)OCC)c2)cc1 [Compound 652, ethyl 3-({[(4-propylphenyl)amino]carbonyl}amino)benzoate] | < 2
8 | CCCc1ccc(NC(=O)Nc2ccc(C(=O)OCC)cc2)cc1 [Compound 653, ethyl 4-({[(4-propylphenyl)amino]carbonyl}amino)benzoate] | < 2
9 | CCCc1ccc(NC(=O)Nc2ccc(C)c(C)c2)cc1 [Compound 654, 1-(3,4-dimethylphenyl)-3-(4-propylphenyl)urea] | < 2
10 | CCCc1ccc(NC(=O)Nc2ccc(C)c(F)c2)cc1 [Compound 655, 1-(3-fluoro-4-methylphenyl)-3-(4-propylphenyl)urea] | < 2
11 | CCCc1ccc(NC(=O)Nc2ccc(F)c(C)c2)cc1 [Compound 656, 1-(4-fluoro-3-methylphenyl)-3-(4-propylphenyl)urea] | < 2
12 | CCc1ccc(NC(=O)Nc2cc(F)cc(F)c2)cc1 [Compound 657, 1-(3,5-difluorophenyl)-3-(4-ethylphenyl)urea] | < 2
13 | CCCc1ccc(NC(=O)Nc2cc(C)cc(C)c2)cc1 [Compound 658, 1-(3,5-dimethylphenyl)-3-(4-propylphenyl)urea] | < 2
14 | CCOc1cccc(NC(=O)Nc2cccc(C(=O)OC)c2)c1 [Compound 659, methyl 3-({[(3-ethoxyphenyl)amino]carbonyl}amino)benzoate] | < 2
15 | CCOc1cccc(NC(=O)Nc2ccc(C(=O)OC)cc2)c1 [Compound 660, methyl 4-({[(3-ethoxyphenyl)amino]carbonyl}amino)benzoate] | < 2
16 | CCOC(=O)c1cccc(NC(=O)Nc2cccc(OCC)c2)c1 [Compound 661, ethyl 3-({[(3-ethoxyphenyl)amino]carbonyl}amino)benzoate] | < 2
17 | CCOC(=O)c1ccc(NC(=O)Nc2cccc(OCC)c2)cc1 [Compound 662, ethyl 4-({[(3-ethoxyphenyl)amino]carbonyl}amino)benzoate] | < 2
18 | CCOc1ccc(NC(=O)Nc2cccc(C(=O)OC)c2)cc1 [Compound 663, methyl 3-({[(4-ethoxyphenyl)amino]carbonyl}amino)benzoate] | < 2
19 | CCOC(=O)c1cccc(NC(=O)Nc2ccc(OCC)cc2)c1 [Compound 664, ethyl 3-({[(4-ethoxyphenyl)amino]carbonyl}amino)benzoate] | < 2
20 | COCc1cccc(NC(=O)Nc2ccc(C(=O)OC)cc2)c1 [Compound 665, methyl 4-[({[3-(methoxymethyl)phenyl]amino}carbonyl)amino]benzoate] | < 2
21 | CCOC(=O)c1ccc(NC(=O)Nc2cccc(COC)c2)cc1 [Compound 666, ethyl 4-[({[3-(methoxymethyl)phenyl]amino}carbonyl)amino]benzoate] | < 2
22 | COCc1ccc(NC(=O)Nc2cccc(C(=O)OC)c2)cc1 [Compound 667, methyl 3-[({[4-(methoxymethyl)phenyl]amino}carbonyl)amino]benzoate] | < 2
23 | COCc1ccc(NC(=O)Nc2ccc(C(=O)OC)cc2)cc1 [Compound 668, methyl 4-[({[4-(methoxymethyl)phenyl]amino}carbonyl)amino]benzoate] | < 2
24 | CCOC(=O)c1cccc(NC(=O)Nc2ccc(COC)cc2)c1 [Compound 669, ethyl 3-[({[4-(methoxymethyl)phenyl]amino}carbonyl)amino]benzoate] | < 2
25 | CCOC(=O)c1ccc(NC(=O)Nc2ccc(COC)cc2)cc1 [Compound 670, ethyl 4-[({[4-(methymethyl)phenyl]amino}carbonyl)amino]benzoate] | < 2
26 | CCCOc1ccc(NC(=O)Nc2cccc(C(=O)OCC)c2)cc1 [Compound 671, ethyl 3-({[(4-propoxyphenyl)amino]carbonyl}amino)benzoate] | < 2

Row | Structure (SMILES) | IC50 [µM]
27 | CCOC(=O)c1cccc(NC(=O)Nc2cccc(OC(C)C)c2)c1 [Compound 672, ethyl 3-({[(3-isopropoxyphenyl)amino]carbonyl}amino)benzoate] | < 2
28 | CCOC(=O)c1ccc(NC(=O)Nc2cccc(OC(C)C)c2)cc1 [Compound 673, ethyl 4-({[(3-isopropoxyphenyl)amino]carbonyl}amino)benzoate] | < 2
29 | CCOC(=O)c1cccc(NC(=O)Nc2ccc(OC(C)C)cc2)c1 [Compound 674, ethyl 3-({[(4-isopropoxyphenyl)amino]carbonyl}amino)benzoate] | < 2
30 | CCOC(=O)c1ccc(NC(=O)Nc2ccc(OC(C)C)cc2)cc1 [Compound 675, ethyl 4-({[(4-isopropoxyphenyl)amino]carbonyl}amino)benzoate] | < 2
31 | COC(=O)c1cccc(NC(=O)Nc2cccc(OC(F)F)c2)c1 [Compound 676, methyl 3-[({[3-(difluoromethoxy)phenyl]amino}carbonyl)amino]benzoate] | < 2
32 | COC(=O)c1ccc(NC(=O)Nc2cccc(OC(F)F)c2)cc1 [Compound 677, methyl 4-[({[3-(difluoromethoxy)phenyl]amino}carbonyl)amino]benzoate] | < 2
33 | CCOC(=O)c1ccc(NC(=O)Nc2cccc(OC(F)F)c2)cc1 [Compound 678, ethyl 4-[({[3-(difluoromethoxy)phenyl]amino}carbonyl)amino]benzoate] | < 2
34 | COC(=O)c1cccc(NC(=O)Nc2ccc(OC(F)F)cc2)c1 [Compound 679, methyl 3-[({[4-(difluoromethoxy)phenyl]amino}carbonyl)amino]benzoate] | < 2
35 | CCOc1cccc(NC(=O)Nc2ccc(C)c(C)c2)c1 [Compound 680, 1-(3,4-dimethylphenyl)-3-(3-ethoxyphenyl)urea] | < 2
36 | CCOc1cccc(NC(=O)Nc2ccc(C)c(F)c2)c1 [Compound 681, 1-(3-ethoxyphenyl)-3-(3-fluoro-4-methylphenyl)urea] | < 2
37 | CCOc1cccc(NC(=O)Nc2ccc(F)c(C)c2)c1 [Compound 682, 1-(3-ethoxyphenyl)-3-(4-fluoro-3-methylphenyl)urea] | < 2
38 | CCOc1cccc(NC(=O)Nc2ccc(F)c(F)c2)c1 [Compound 683, 1-(3,4-difluorophenyl)-3-(3-ethoxyphenyl)urea] | < 2
39 | COCc1ccc(NC(=O)Nc2ccc(C)c(C)c2)cc1 [Compound 684, 1-(3,4-dimethylphenyl)-3-[4-(methoxymethyl)phenyl]urea] | < 2
40 | COCc1ccc(NC(=O)Nc2ccc(C)c(F)c2)cc1 [Compound 685, 1-(3-fluoro-4-methylphenyl)-3-[4-(methoxymethyl)phenyl]urea] | < 2
41 | CCCOc1ccc(NC(=O)Nc2ccc(F)c(F)c2)cc1 [Compound 686, 1-(3,4-difluorophenyl)-3-(4-propoxyphenyl)urea] | < 2
42 | Cc1ccc(NC(=O)Nc2cccc(OC(C)C)c2)cc1C [Compound 687, 1-(3,4-dimethylphenyl)-3-(3-isopropoxyphenyl)urea] | < 2
43 | Cc1ccc(NC(=O)Nc2cccc(OC(C)C)c2)cc1F [Compound 688, 1-(3-fluoro-4-methylphenyl)-3-(3-isopropoxyphenyl)urea] | < 2
44 | Cc1cc(NC(=O)Nc2cccc(OC(C)C)c2)ccc1F [Compound 689, 1-(4-fluoro-3-methylphenyl)-3-(3-isopropoxyphenyl)urea] | < 2
45 | CC(C)Oc1cccc(NC(=O)Nc2ccc(F)c(F)c2)c1 [Compound 690, 1-(3,4-difluorophenyl)-3-(3-isopropoxyphenyl)urea] | < 2
46 | Cc1ccc(NC(=O)Nc2ccc(OC(C)C)cc2)cc1C [Compound 691, 1-(3,4-dimethylphenyl)-3-(4-isopropoxyphenyl)urea] | < 2
47 | Cc1ccc(NC(=O)Nc2ccc(OC(C)C)cc2)cc1F [Compound 692, 1-(3-fluoro-4-methylphenyl)-3-(4-isopropoxyphenyl)urea] | < 2
48 | Cc1cc(NC(=O)Nc2ccc(OC(C)C)cc2)ccc1F [Compound 693, 1-(4-fluoro-3-methylphenyl)-3-(4-isopropoxyphenyl)urea] | < 2
49 | CC(C)Oc1ccc(NC(=O)Nc2ccc(F)c(F)c2)cc1 [Compound 694, 1-(3,4-difluorophenyl)-3-(4-isopropoxyphenyl)urea] | < 2
50 | Cc1ccc(NC(=O)Nc2cccc(OC(F)F)c2)cc1C [Compound 695, 1-[3-(difluoromethoxy)phenyl]-3-(3,4-dimethylphenyl)urea] | < 2
51 | Cc1ccc(NC(=O)Nc2cccc(OC(F)F)c2)cc1F [Compound 696, 1-[3-(difluoromethoxy)phenyl]-3-(3-fluoro-4-methylphenyl)urea] | < 2
52 | Cc1cc(NC(=O)Nc2cccc(OC(F)F)c2)ccc1F [Compound 697, 1-[3-(difluoromethoxy)phenyl]-3-(4-fluoro-3-methylphenyl)urea] | < 2
